Laboratory results: PubChem BioAssay AID179 (DTP/NCI, 2004)
Values joined by “and” are separate entries in the source; they are usually repeats but may differ in a detail not shown here. Identical values can stand only once. Active and inactive are the calls of the source.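 Rule for the calls: active = compounds giving half or more protection of infected cells from virus-caused growth loss, again on retest; inactive = the rest.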

System: CEM cells HIV-1 protection, formazan growth assay
Experiment: NCI AIDS Antiviral Assay
Details: for IC50: measured here: growth of uninfected CEM cells
Procedure, shortened: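 Five concentrations of each compound were applied to infected and uninfected human CEM cells. Protection from HIV-1 was judged from growth measured with a soluble formazan assay.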

SMILES	EC50	IC50	outcome
CCC(=O)O[C@@H]1C2C(OC(C)=O)C34COC(C)([C@@H]3C3C(C[C@]3(C)OC(C)=O)[C@@H](OC(=O)c3ccccc3)C4=O)[C@H](OC(C)=O)[C@@]2(OC(C)=O)C[C@@H]1C (stereo partly specified)	> 10 µM	> 10 µM	
CCCC(=O)OC1C(C2COC(C)(C)O2)OC2OC(C)(C)OC21 (stereo unspecified)			inactive
Cc1ccccc1Nc1cn(CCOc2ccccc2)c(=O)n(CCOc2ccccc2)c1=O	> 200 µM	> 200 µM	
CCOC(=O)C1(Br)C(c2ccccc2)NC(=O)N(C2OC(COC(=O)c3ccccc3)C(OC(=O)c3ccccc3)C2OC(=O)c2ccccc2)C1(C)Br (stereo unspecified)	> 15.8 µM	> 15.8 µM	
Cc1ccc(S(=NS(=O)(=O)c2ccc(C)cc2)c2ccc(C)cc2)cc1	> 49 µM	> 49 µM	
CN(C)CCCN1CCC2(CCSCC2)C1	> 186 µM	87.1 µM	
CCOC(=O)NC(=O)c1cn(CCNCCO)c(=O)[nH]c1=O			inactive
O=C1OCC(C(=O)c2cccc(O)c2)C1=O (stereo unspecified)			inactive
CCOc1cnn(-c2ccccc2)c(=O)c1SCc1ccc(Cl)c(Cl)c1	> 33.1 µM	18.6 µM	
CCN(CC)CCCNc1cnnc2cc(Cl)ccc12	> 363 µM	83.2 µM	
O=c1n(CCCCn2c(=O)n(CC3CS3)c3ccccc32)c2ccccc2n1CC1CS1 (stereo unspecified)	> 28.8 µM	9.12 µM	
O=C(NC(=O)c1cn(CCN2CCNCC2)c(=O)[nH]c1=O)OCc1ccccc1			inactive
N#CCCN(c1ccc(C=Nc2cccc([N+](=O)[O-])c2)cc1)S(=O)(=O)c1ccccc1			inactive
NCCC1(N)CCNCC1			inactive
O=C1[C@@H]2C(c3ccccc3F)=NO[C@@H]2C(=O)N1c1ccc(Cc2ccc(N3C(=O)[C@H]4C(c5ccccc5F)=NO[C@H]4C3=O)cc2)cc1	> 8.32 µM	> 8.32 µM	
CCCCCC=C(c1ccc(OC)c(C(=O)OC)c1)c1ccc(OC)c(C(=O)OC)c1	> 200 µM	27.5 µM	
C[C@@H]1CC(=O)C2CCCC1C2=O (stereo partly specified)			inactive
O=C1CS(=O)(=O)C(c2cccc(Cl)c2)N1N1C(=O)CS(=O)(=O)C1c1cccc(Cl)c1 (stereo unspecified)	> 200 µM	> 200 µM	
Cn1c(=O)c2[nH]c(Nc3cccc(Cl)c3)nc2n(C)c1=O	> 200 µM	10.7 µM	
Cn1cc(NC(=O)Nc2cc(C(=O)Nc3cc(C(=O)Nc4ccc5c(S(=O)(=O)O)cccc5c4S(=O)(=O)O)n(C)c3)n(C)c2)cc1C(=O)Nc1cc(C(=O)Nc2ccc3c(S(=O)(=O)O)cccc3c2S(=O)(=O)O)n(C)c1	22.9 µM	148 µM	
CC1=NN(C(=O)CC(=O)Nc2ccc(C)cc2)C(=O)C1N=Nc1ccc(S(N)(=O)=O)cc1 (stereo unspecified)	> 0.631 µM	> 0.631 µM	
C=C(C)C(CCC(=O)O)(CCC(=O)O)C(C)=O	> 1020 µM	> 1020 µM	

SMILES	EC50	IC50	outcome
COc1cc(C(c2c(O)c3ccccc3oc2=O)c2c(O)c3ccccc3oc2=O)cc(OC)c1O	> 200 µM	15.5 µM	
CCOC(=O)C(COS(C)(=O)=O)(COS(C)(=O)=O)C(=O)OCC	> 251 µM	209 µM	
O=C1CCC(c2ccccc2)=NN1c1nc2ccccc2s1			inactive
O=c1oc2ccccc2c(O)c1/C=N/C(=S)NCCc1ccccc1	> 200 µM	> 200 µM	
CCN(CC)C1Oc2cc3c(cc2C(c2cc(OC)c(O)c(OC)c2)C1C)OCO3 (stereo unspecified)	> 200 µM	1.29 µM	
CCC12CCCN(Cc3ccccc3)C1c1c(n(C)c3ccccc13)CC2 (stereo unspecified)	> 66.1 µM	> 66.1 µM	
O=c1nc2n(c3ncccc13)CC=NN2	> 200 µM	> 200 µM	
Nc1nnc[se]1	> 200 µM	3.63 µM	
OC[C@H](O)[C@@H](OCc1ccccc1)[C@H](NCc1ccccc1)c1cccs1	> 200 µM	97.7 µM	
COc1ccc(CN2CCCN(Cc3ccc(OC)cc3OC)C2c2cc(Cl)cc(Cl)c2O)c(OC)c1	> 200 µM	34.7 µM	
Cc1cnnc2c3ccccc3nn12	> 123 µM	> 123 µM	
Nc1nc(N)c(CCc2ccccc2)c(N)n1			inactive
CCOC(=O)C(=O)Nc1cc(Cl)ccc1Cl	> 363 µM	> 363 µM	
CC1(C)O[C@@H]2C[C@H]3[C@@H]4C[C@H](F)C5=CC(=O)C=C[C@]5(C)[C@@]4(F)[C@@H](O)C[C@]3(C)[C@]2(C(=O)CO)O1	> 2 µM	0.00741 µM	
Cc1c(C(=O)c2ccccc2)n(COCCCO[Si](C)(C)C(C)(C)C)c(=O)[nH]c1=O	> 200 µM	11.7 µM	
COC1CC(n2cnc3c(N)ncnc32)OC1CO (stereo unspecified)	> 200 µM	> 200 µM	
O=Nc1c(O)cc(Nc2ccc(Br)cc2)c2ccccc12	> 200 µM	39.8 µM	
COc1ccc(C(c2ccc(C(C)C)cc(OC)c2=O)c2ccc(C(C)C)cc(OC)c2=O)cc1			inactive
CC1(C)C2CCC1(C)C(N=C(N)CSS(=O)(=O)O)C2 (stereo unspecified)	> 200 µM	49 µM and 30.9 µM	
Nc1ncnc2c1ncn2C1C=CC(COS(N)(=O)=O)C1 (stereo unspecified)	> 100 µM	52.5 µM	
COCCN(C(=O)c1ccccc1)C1CCC(=O)c2[nH]c3ccccc3c21 (stereo unspecified)	> 200 µM	3.63 µM	
O=CN(CCNc1ccccc1)c1ccccc1	> 200 µM	> 200 µM	

SMILES	EC50	IC50	outcome
COc1cc(C2[C@H]3C(=O)N(c4ccc(Cc5ccc(N6C(=O)[C@@H]7ON(c8ccccc8)C(c8cc(OC)c(OC)c(OC)c8)[C@@H]7C6=O)cc5)cc4)C(=O)[C@H]3ON2c2ccccc2)cc(OC)c1OC (stereo partly specified)	> 5.62 µM	> 5.62 µM	
CC1=Nc2ccc(C)cc2N=C(C)C1	> 200 µM	> 200 µM	
N#C/C(=C\c1ccc2ccccc2c1)C(=O)c1ccccc1	> 7.08 µM	> 7.08 µM	
CC1=NC2(CCCCC2)N(Cl)C(=O)C1SC#N (stereo unspecified)	> 200 µM	17.8 µM	
COc1ccc(C2Oc3cc(OC)ccc3C(=O)C2c2ccccc2)cc1 (stereo unspecified)	> 200 µM	31.6 µM	
O=C(O)/C(=C/c1ccc([N+](=O)[O-])cc1)c1ccccc1	> 490 µM	95.5 µM	
CCCCCCCCCCCCCCCC(=O)OC1C(O)C(O)C(O)C(O)C12CO2 (stereo unspecified)	> 20 µM	7.08 µM	
C[Se]CCC1OC[C@H]2O[C@@H](n3cc(C)c(=O)[nH]c3=O)C[C@H]2N1O (stereo partly specified)			active
CC(=O)Nc1ccccc1S(=O)c1ccccc1 (stereo unspecified)	> 229 µM	> 229 µM	
Cc1[nH]nc(N)c1C#N	> 200 µM	191 µM	
CCNC(=S)N/N=C/c1ccccn1	> 200 µM	0.851 µM	
CN1C(=O)N/C(=C\c2ccc(S(=O)(=O)N/N=C\C(O)C(O)C(O)CO)cc2)C1=O (stereo unspecified)	> 200 µM	> 200 µM	
C/C=C/C=Nc1c(C#N)c2n(c1C(=O)Nc1ccc(C)cc1)CCC2	> 50.1 µM	> 50.1 µM	
C[C@]12CCC[C@H](O)[C@H]1C[C@H](CO)CC2			inactive
Cc1cccnc1NC(=O)NCCCl	> 200 µM	> 200 µM	
O=[N+]([O-])c1cc(SSc2ccc(Cl)c([N+](=O)[O-])c2)ccc1Cl	> 60.3 µM	13.2 µM	
O=C(NC1CCCCCC1)C1C(=O)N(C2CCCCCC2)C(=O)/C1=N\O (stereo unspecified)			inactive
O=C(O)CNC(=O)C(CSC(=O)OCC1c2ccccc2-c2ccccc21)NC(=O)CCC(NC(=O)OCC1c2ccccc2-c2ccccc21)C(=O)O (stereo unspecified)	> 200 µM	107 µM	
COc1ccc(N(CN2C(=O)CCC2C(=O)O)C(C)=O)cc1 (stereo unspecified)			inactive
CC1C(c2cc(C(C)(C)C)c(O)c(C(C)(C)C)c2)c2cc3c(cc2OC1N1CCOCC1)OCO3 (stereo unspecified)	> 200 µM	> 200 µM	
CCC(=O)NI1OC(=O)c2ccccc21	> 200 µM	81.3 µM	
C#CCN(Cc1ccc2nc(OC)c(OC)nc2c1)c1cc(OC)c(OC)c(OC)c1	> 200 µM	11.2 µM	

SMILES	EC50	IC50	outcome
C/C(CC(=O)N(C(C)C)C(C)C)=N\NC(=O)c1ccncc1	> 61.7 µM	> 61.7 µM	
Nc1c2c(nc3ccccc13)CCCC2 (tested in a mixture with another compound)	> 4170 µM	25.7 µM and 39.8 µM	
N#CC1C(=S)NC(c2ccccc2)=CC12CCCCC2 (stereo unspecified)	> 200 µM	42.7 µM	
C/C(=N\N=C(/[O-])c1ccccc1)c1cccc(/C(C)=N/N=C(\[O-])c2ccccc2)n1.O.[Cu+2]	> 100 µM	18.2 µM	
COC(=O)C12C(=CCP1(C)=O)C(c1ccccc1)=NN2c1ccccc1 (stereo unspecified)	> 27.5 µM	> 27.5 µM	
CSC1=N/C(=C\c2cccs2)C(=O)N1CN1CCOCC1	> 200 µM	38 µM	
CCC/C=[N+](\[O-])[C@@H]1CC(n2cc(C)c(=O)[nH]c2=O)OC1CO[Si](C)(C)C(C)(C)C (stereo partly specified)	> 200 µM	107 µM	
CC1OC(OC23C(=O)CC(C)(O)CC2(O)C=CC2=C3C(=O)c3ccc(C4CC(OC5CCC(OC6CC(O)C(O)C(C)O6)C(C)O5)C(O)C(C)O4)c(O)c3C2=O)CCC1O (stereo unspecified)	> 295 µM	4.9 µM	
CCOP(=O)(Cc1c(Cl)c(Cl)c(CP(=O)(OCC)OCC)c(Cl)c1Cl)OCC	> 200 µM	26.9 µM	
NC(=S)N/N=C1/CCCC2CCCC[C@@H]12 (stereo partly specified)	> 200 µM	> 200 µM	
NCc1ccccc1C1CSCSC1	> 575 µM	288 µM	
CCCCCCCC(=O)OCC1OC(OC)C(NC(=O)N(CCCl)N=O)C(O)C1O (stereo unspecified)	> 79.4 µM	8.51 µM	
CCC1C(=O)N(C)c2ccccc21 (stereo unspecified)	> 200 µM	117 µM and 33.1 µM	
Cc1c(C(=O)NCCO)[n+](=O)c2ccccc2n1[O-]	> 135 µM	> 135 µM	
C=CC(C)(C)n1cc(C2=C(O)C(=O)C(c3cn(C(C)(C)C=C)c4ccccc34)=C(O)C2=O)c2ccccc21	> 22.4 µM	12.3 µM	
O=c1oc2ccccc2c(O)c1C(C/C(CCN1CCCC1)=N\Nc1ccccc1)c1ccccc1 (stereo unspecified)	> 97.7 µM	41.7 µM	
C1=CN2C(c3ccccc3)=NON(c3ncccn3)C2N=C1 (stereo unspecified)	> 46.8 µM	> 46.8 µM	
CCn1c(O)c(C=Nc2ccccc2)s/c1=N/Nc1nc(-c2ccccc2)cs1	> 200 µM	24.5 µM	
O=C(NCCCNCCNC(=O)c1cc(-c2ccccc2)nc2ccccc12)c1cc(-c2ccccc2)nc2ccccc12	> 20 µM	3.02 µM	
